Experimental data taken from patent US20230088286A1, “USP7 INHIBITOR FOR USE IN THE TREATMENT OF CANCER” (ALMAC DISCOVERY LIMITED, priority 2020, published 2023).

Key:
[1] = tested on: HIF-1α; experiment: Cycloheximide chase assay, HIF-1α half-life
Description: Cells were lysed at the indicated time points (from 0 to 60 min) and samples analysed by immuno-blotting probing for HIF-1α. HIF-1α half-life was quantified by densitometry analysis. β-Actin was included as a normalization control.
Samples were subsequently collected at various time points for immuno-blot analysis probing for HIF-1α levels.
Cells were harvested and lysed at different time points and subjected to Western blot analysis using anti-HIF-1α antibody (D2U3T, Rabbit mAb #14179 Cell Signalling) and β-actin (Santa Cruz: A5316; 1:5000) as a loading control.

[2] = tested on: VEGF; experiment: Circulating serum VEGF by ELISA in CT-26 tumour bearing mice; assay type: in vivo, mouse; conditions: day 15 post tumour grafting
[3] = tested on: immortalized lung fibroblasts (WI38-VA13); experiment: sVEGF ELISA in immortalized fibroblasts; assay type: cell-based, human; conditions: SV-40 immortalized, destabilized p53
Description: FIG. 7: USP7 inhibition-mediated decrease in VEGF secretion is dependent on a functional p53 pathway.
For the co-culture experiments, 5×10^4 cancer cells were seeded in transwell in 0.5 mL complete growth medium and placed on the top of 0.1×10^6 fibroblasts plated in 12-well in 1 mL low serum growth media overnight. Following day cancer cells were washed with PBS and media replaced with reduced (1%) serum growth media. 0.5×10^6 PBMC were plated on top of fibroblasts, incubated for 45 min and activated with CD3 (1 μg/ml final concentration) and CD28 (5 μg/ml final concentration). […] Monoculture experiments, 0.1×10^6 cells were seeded in 12-well in 1 mL of complete growth media (cancer cells) or low serum growth media (fibroblasts) and incubated overnight. […] Afterwards, cell culture media was collected, cell debris were removed by centrifugation the concentration of VEGF in the cell culture supernatants was measured using the human/mouse VEGF immunoassay Quantikine ELISA kit (R&D systems, Minneapolis, Minn., USA) according to the manufacturer's instructions. For the intracellular VEGF detection, total protein concentration was determined by BCA (Pierce Chemical, USA) and VEGF levels determined using the same kit described above.

[4] = tested on: MMP-7; experiment: MMP-7 in supernatants of HDF invasion assay (Luminex); assay type: cell-based, human; conditions: invading HDF, 96 hours
Description: The scratch wound cell invasion assay was used to measure the ability of primary human fibroblasts to invade through Matrigel® basement membrane. Cell culture supernatants from invasion assay were collected after 96 hours and MMP-7 levels were measured using Luminex®.
To further explore whether USP7 inhibition modulates MMP levels in invading fibroblasts, cell culture supernatants from HDF invasion assay were collected and presence of various MMP was detected using Luminex® Multiplex assay.
(§1) Concentrations of MMP2 and MMP7 were determined in cell culture supernatants in triplicates using Luminex human cytokine/chemokine multiplex kits (Millipore, St. Charles, Mo., USA) according to the manufacturer's protocol.

[5] = tested on: tumour VEGFA mRNA; experiment: RNA-seq of syngeneic CT-26 tumour samples; assay type: in vivo, mouse
Description: Finally, mode of action of AD-04 in vivo was analysed by RNA-seq. […] Moreover, individual genes within HIF1A pathway were differentially modulated upon USP7 inhibition.

[6] = tested on: MMP-2; experiment: MMP-2 in supernatants of HDF and HUVEC co-culture (Luminex); assay type: cell-based, human; conditions: supernatants after 14 days
Description: Cell culture supernatants from tube formation were collected and MMP-2 levels were measured using Luminex®.
Next, the underlying mechanism of tube formation inhibition was investigated. […] To determine whether secretion of MMP-2 is modulated by USP7 inhibition, supernatants from HUVEC and HDF co-cultures were collected after 14 days.
as §1

[7] = Oral availability; assay type: in vivo; conditions: compared to AD-04
[8] = target: CYP3A4 (Homo sapiens, UniProt P08684); experiment: TDI shift CYP3A4; assay type: in vitro ADME; conditions: value in brackets; shift N/A
CYP3A4, sequence (P08684 whole entry): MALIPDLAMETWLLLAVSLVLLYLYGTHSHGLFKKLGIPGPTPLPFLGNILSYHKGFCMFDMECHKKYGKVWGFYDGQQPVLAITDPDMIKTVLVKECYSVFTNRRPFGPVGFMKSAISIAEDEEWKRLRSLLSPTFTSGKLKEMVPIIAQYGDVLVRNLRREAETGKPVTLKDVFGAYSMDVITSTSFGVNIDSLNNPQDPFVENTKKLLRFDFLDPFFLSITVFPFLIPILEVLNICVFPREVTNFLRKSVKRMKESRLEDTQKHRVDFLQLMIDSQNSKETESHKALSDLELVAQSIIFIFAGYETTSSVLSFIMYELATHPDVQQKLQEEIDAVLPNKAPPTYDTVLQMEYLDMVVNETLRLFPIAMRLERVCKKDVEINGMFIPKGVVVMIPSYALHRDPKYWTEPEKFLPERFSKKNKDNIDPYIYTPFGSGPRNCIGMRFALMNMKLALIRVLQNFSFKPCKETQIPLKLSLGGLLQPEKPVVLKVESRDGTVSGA

[9] = tested on: Ub-MDM2; experiment: Ub-MDM2 MSD (HCT116); assay type: cell-based; conditions: Homo sapiens, HCT-116
[10] = LM CLhep (r); assay type: in vitro ADME, rat
[11] = target: 2D6 (Homo sapiens, UniProt P10635); experiment: Cyp inhibition 2D6; assay type: in vitro ADME; conditions: read-out: Cyps: 2D6
2D6, sequence (P10635 whole entry): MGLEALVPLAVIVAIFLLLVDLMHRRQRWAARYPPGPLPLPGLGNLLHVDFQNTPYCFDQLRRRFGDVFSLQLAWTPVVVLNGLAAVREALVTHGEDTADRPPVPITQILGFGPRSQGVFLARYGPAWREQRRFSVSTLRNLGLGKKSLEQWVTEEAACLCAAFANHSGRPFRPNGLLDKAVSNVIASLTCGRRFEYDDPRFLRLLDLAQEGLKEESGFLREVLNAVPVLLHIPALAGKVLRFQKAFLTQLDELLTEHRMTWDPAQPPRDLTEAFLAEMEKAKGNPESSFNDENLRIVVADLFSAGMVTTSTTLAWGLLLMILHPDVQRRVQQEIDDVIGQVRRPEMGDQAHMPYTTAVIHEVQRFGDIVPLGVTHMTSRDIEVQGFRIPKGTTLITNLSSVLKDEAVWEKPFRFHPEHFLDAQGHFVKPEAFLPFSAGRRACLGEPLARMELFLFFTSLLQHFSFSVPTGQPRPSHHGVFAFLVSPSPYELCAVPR

[12] = Hep CLhep (r); assay type: in vitro ADME, rat
[13] = LM CLhep (h); assay type: in vitro ADME, human
[14] = tested on: CT-26 tumour cells in BALB/c mouse; experiment: CT-26 syngeneic tumour model with immune checkpoint inhibitors (ADC-159 study); assay type: in vivo
Description: FIG. 38: Effect of USP7 inhibition in combination with immune checkpoint inhibitors […] on the tumour microenvironment in vivo. […] Tumour volume of CT-26 xenograft implanted in immuno-competent syngeneic mice treated with vehicle control, ADC-159, anti-PD-L1, anti-CTLA-4 or in combination was measured twice weekly until day 13 post tumour implantation.
FIG. 39: USP7 inhibition leads to increase survival when combined with anti-PD-L1 and anti-CTLA-4 immune checkpoint inhibitors. […] (B) Individual growth curves show improved anti-tumour response when USP7 inhibitor ADC-159 is combined with ICIs. n=10 animals/group.
For the immune checkpoint inhibitor in vivo experiments, BALB/c mouse was injected subcutaneously in the right rear flank with 5×10^5 viable CT-26 tumour cells in 0.1 mL of PBS. ADC-159 (75 mg/kg and 100 mg/kg) was dosed daily while anti-PD-L1 or anti-CTLA4 (10 mg/kg) were dosed every 3 days. Tumour volume (mm^3) was measured with callipers three times a week using the equation: Tumour Volume (TV)=0.5((W)^2×L), where W is the shortest tumour diameter (width) and L is the longest perpendicular diameter (length), in millimetres. Body weights were measured on the same days during the dosing phase. […] Graphing and statistical analysis of tumour volume using one-way ANOVA followed by Dunnett's multiple comparisons test. […]

Compound | HIF-1α half-life ([1]; HDF, hypoxia, cycloheximide 100 μg/mL, AD-04 1 μM) [min] | reduction of HIF-1α half-life ([1]; versus untreated cells (6 minutes and 36 seconds)) [%] | circulating VEGF in mouse serum [2] | VEGF secretion [3] | MMP-7 levels [4] | tumour VEGFA long isoform mRNA [5] | tumour VEGFA short isoform mRNA [5] | MMP-2 levels [6] | oral availability [7] | IC50 [8] [µM] | EC50 [9] [µM] | LM CLhep (r) [10] | IC50 [11] [µM] | Hep CLhep (r) [12] | LM CLhep (h) [13] | tumour growth inhibition (TGI) ([14]; Day 13) [%] | survival ([14]; Kaplan-Meier, compared to vehicle controls)
C[C@H](CC(=O)N1CCC(O)(Cn2cnc3c(-c4ccc(CN)cc4)n(C)nc3c2=O)CC1)c1ccccc1 [AD-04, (R)-3-(4-(Aminomethyl)phenyl)-6-((4-hydroxy-1-(3-phenylbutanoyl)piperidin-4-yl)methyl)-2-methyl-2H-pyrazolo[4,3-d]pyrimidin-7(6H)-one] | 4 | 40 | significant dose-dependent decrease | insensitive | decreases | increase | decrease | decreases |  |  |  |  |  |  |  |  | 
CC1(C(=O)N2CCC(O)(Cn3cnc4c(cc(Cl)n4-c4ccc5c(c4)CCO5)c3=O)CC2)CC1 [ADC-159, 6-Chloro-7-(2,3-dihydrobenzofuran-5-yl)-3-((4-hydroxy-1-(1-methylcyclopropane-1-carbonyl)piperidin-4-yl)methyl)-3,7-dihydro-4H-pyrrolo[2,3-d]pyrimidin-4-One] |  |  |  |  |  |  |  |  | improved oral availability | > 20 | 0.093 | 27 | > 20 | 43 | 9 | 23 | modest but significant increase
